Assay results published in patent US20100221351A1, “Controlled Drug Delivery Using a Thermally Responsive Nanocapsule to Augment Cryoablation” (UNIVERSITY OF SOUTH CAROLINA, priority 2009, published 2010).

Assay: Release of trehalose during dialysis into 1 L water at 37° C.
Assay type: physicochemical
Settings: 0.3 g trehalose in 2 ml water
Method: FIG. 2. Release of trehalose (0.3 g) into 1 L water during dialysis under 3 conditions: free dissolved, nanoencapsulated (NE) with cooling/heating between 22 and 37° C. (NE22-37C), and nanoencapsulated kept at 37° C. (NE37C) before dialysis.
This nanocapsule has been used to physically encapsulate a small molecular weight hydrophilic trehalose (Mw=342 Da) for its intracellular delivery and controlled release. […] Clearly, the free dissolved trehalose was completely released from the dialysis bag in ˜2 hr, while trehalose release from the other two conditions with nanoencapsulation is much slower. The release for the sample kept 37° C. (i.e., NE37C) reached equilibrium at approximately 4 hours while it is approximately 3 hours for the sample with cooling and heating between 22 and 37° C. (i.e., NE22-37C). Moreover, approximately 11.3 and 4.3 mg trehalose were still retained in the NE37C and NE22-37C samples under the equilibrium state, respectively. […] In other words, a quick release of the nanoencapsulated trehalose can be achieved by thermally cycling the trehalose loaded nanocapsule between 22 and 37° C.

time to complete release of trehalose from the dialysis bag: ~2 h
Compound: OC[C@H]1O[C@H](O[C@H]2O[C@H](CO)[C@@H](O)[C@H](O)[C@H]2O)[C@H](O)[C@@H](O)[C@@H]1O [free dissolved trehalose, trehalose]
